Results reported in patent publication US8277842B1, “Enteric-coated HT-2157 compositions and methods of their use” (Dart NeuroScience (Cayman) Ltd., priority 2012, dated 2012).

Columns and labels:
[1] = Metabolite HT-2800 in microsomes incubated with HT-2157, rat; format: in vitro ADME
Protocol: (§1) Such HT-2157 administration studies were carried out in several animal models, including rats, dogs (as well as mice). In this regard, the major human metabolite of HT-2157, HT-2800, was found in human, mouse, and monkey microsomes following incubation with the HT-2157 compound, but it was not detected in rat or dog microsomes or in plasma collected from dogs dosed with HT-2157.

in vivo = conditions: rat, po; for AUC(0-t): AUC0-24 of HT-2157 in plasma; for Cmax: Cmax of HT-2157 in plasma; for NOEL / NOEL (first NOEL column) / non-toxic dose level: 28 days
Protocol: (§2) Consequently, separate toxicokinetic studies directed to […] (without an enteric coating) were performed in rat and in dog, which is considered the more sensitive species. […] In these studies, the non-toxic dose level for oral administration of HT-2157 over 28 days was 30 mg/kg/day for female rats, 100 mg/kg/day for male rats and 50 mg/kg/day for dogs (both sexes). Table 1 lists the mean Cmax and AUC values of HT-2157 in the plasma associated with these dosages: […]

[2] = after systemic administration; Oegren et al. 2006; cited from earlier work
[3] = Ninety-day study with HT-2157, methemoglobin formation, rats; format: in vivo
Source text: (§3) These findings indicate that a process of hemolytic anemia and compensatory hematopoietic response to anemia occurred in the animals. The hemolytic anemia was reversible upon discontinuation of drug treatment. In animals at high doses, there were also increases in methemoglobin of between 30 and 40% in treatment as compared to control animals. These increases resolved 1 to 2 weeks after discontinuation of dosing.

[4] = Repeat-dose animal toxicology studies, PO; format: in vivo, mice, rats, dogs; conditions: non-enteric coated
[5] = Metabolite HT-2800 in plasma of dogs dosed with HT-2157; format: in vivo, dog; conditions: plasma collected from dogs dosed with HT-2157
Protocol: as §1

[6] = 28-day oral toxicity study with non-enteric coated HT-2157, dog; format: in vivo; conditions: for Cmax / AUC(0-t): plasma, 50 mg/kg/day, at NOEL; for AUC(0-t): read-out: AUC0-24 of HT-2157 in plasma
Protocol: as §2

[7] = Metabolite HT-2800 in microsomes incubated with HT-2157, mouse; format: in vitro ADME
Protocol: as §1

[8] = Ninety-day study with HT-2157, methemoglobin formation, dogs; format: in vivo
Source text: as §3

[9] = Metabolite HT-2800 in microsomes incubated with HT-2157, human; format: in vitro ADME
Protocol: as §1

[10] = Metabolite HT-2800 in microsomes incubated with HT-2157, dog; format: in vitro ADME
Protocol: as §1

[11] = Metabolite HT-2800 in microsomes incubated with HT-2157, monkey; format: in vitro ADME
Protocol: as §1

[12] = Ninety-day study with HT-2157, methemoglobin formation, mice; format: in vivo
Source text: as §3

[13] = female, female dog, day 1 of dosing
[14] = female, female dog, day 28 of dosing
[15] = male, male dog, day 1 of dosing
[16] = male, male dog, day 28 of dosing

O=C1C(=Nc2cccc(C(F)(F)F)c2)c2ccccc2N1c1ccccc1 [HT-2157]
metabolite HT-2800 following incubation with HT-2157 [1]: not detected | AUC0-24 of HT-2157 in plasma (in vivo; female, 30 mg/kg/day): 235 ng·h/mL | AUC(0-t) (in vivo; female, 30 mg/kg/day): 283 ng·h/mL | Cmax (in vivo; female, 30 mg/kg/day): 109 ng/mL | NOEL (in vivo; female): 177 | NOEL (first NOEL column) (in vivo; female): 30 | non-toxic dose level (in vivo; female): 30 mg/kg/day | AUC0-24 of HT-2157 in plasma (in vivo; male, 100 mg/kg/day): 1445 ng·h/mL | AUC(0-t) (in vivo; male, 100 mg/kg/day): 1380 ng·h/mL | Cmax (in vivo; male, 100 mg/kg/day): 252 ng/mL | NOEL (in vivo; male): 590 | NOEL (first NOEL column) (in vivo; male): 100 | non-toxic dose level (in vivo; male): 100 mg/kg/day | blood-brain barrier passage [2]: can cross the blood-brain barrier | dose with statistically significant methemoglobin formation [3]: 150 mg/kg/day | drug-related findings in repeat-dose toxicology ([4]; mice up to 3 months, rats up to 1 year, dogs up to 9 months): dose-dependent shifts in hemoglobin fractions (methemoglobin, carboxyhemoglobin, oxyhemoglobin) and mild to moderate reversible hemolytic anemia with associated compensatory responses | metabolite HT-2800 in plasma [5]: not detected | non-toxic dose level ([6]; both, in vivo, 28 days): 50 mg/kg/day | NOEL ([6]; female, in vivo, 28 days): 1000 | NOEL (first NOEL column) ([6]; female, in vivo, 28 days): 50 | Cmax [6, 13]: 162 ng/mL | AUC(0-t) [6, 13]: 571 ng·h/mL | Cmax [6, 14]: 104 ng/mL | AUC(0-t) [6, 14]: 799 ng·h/mL | NOEL ([6]; male, in vivo, 28 days): 1000 | NOEL (first NOEL column) ([6]; male, in vivo, 28 days): 50 | Cmax [6, 15]: 99 ng/mL | AUC(0-t) [6, 15]: 676 ng·h/mL | Cmax [6, 16]: 87.1 ng/mL | AUC(0-t) [6, 16]: 550 ng·h/mL | metabolite HT-2800 following incubation with HT-2157 [7]: found | dose with statistically significant methemoglobin formation [8]: ≥ 30 mg/kg/day | metabolite HT-2800 following incubation with HT-2157 [9]: found | metabolite HT-2800 following incubation with HT-2157 [10]: not detected | metabolite HT-2800 following incubation with HT-2157 [11]: found | dose with statistically significant methemoglobin formation [12]: 750 mg/kg/day

O=C1C(=Nc2cccc(C(F)(F)F)c2)c2ccccc2N1c1ccc(O)cc1 [HT-2800]
drug-related findings in repeat-dose toxicology ([4]; rats up to 6 months, dogs 9 months): dose-dependent shifts in hemoglobin fractions (methemoglobin, carboxyhemoglobin, oxyhemoglobin) and mild to moderate reversible hemolytic anemia with associated compensatory responses
